Biological target: T1, SOS1 protein (Homo sapiens, UniProt Q07889)
T1 sequence (Q07889 1-1333): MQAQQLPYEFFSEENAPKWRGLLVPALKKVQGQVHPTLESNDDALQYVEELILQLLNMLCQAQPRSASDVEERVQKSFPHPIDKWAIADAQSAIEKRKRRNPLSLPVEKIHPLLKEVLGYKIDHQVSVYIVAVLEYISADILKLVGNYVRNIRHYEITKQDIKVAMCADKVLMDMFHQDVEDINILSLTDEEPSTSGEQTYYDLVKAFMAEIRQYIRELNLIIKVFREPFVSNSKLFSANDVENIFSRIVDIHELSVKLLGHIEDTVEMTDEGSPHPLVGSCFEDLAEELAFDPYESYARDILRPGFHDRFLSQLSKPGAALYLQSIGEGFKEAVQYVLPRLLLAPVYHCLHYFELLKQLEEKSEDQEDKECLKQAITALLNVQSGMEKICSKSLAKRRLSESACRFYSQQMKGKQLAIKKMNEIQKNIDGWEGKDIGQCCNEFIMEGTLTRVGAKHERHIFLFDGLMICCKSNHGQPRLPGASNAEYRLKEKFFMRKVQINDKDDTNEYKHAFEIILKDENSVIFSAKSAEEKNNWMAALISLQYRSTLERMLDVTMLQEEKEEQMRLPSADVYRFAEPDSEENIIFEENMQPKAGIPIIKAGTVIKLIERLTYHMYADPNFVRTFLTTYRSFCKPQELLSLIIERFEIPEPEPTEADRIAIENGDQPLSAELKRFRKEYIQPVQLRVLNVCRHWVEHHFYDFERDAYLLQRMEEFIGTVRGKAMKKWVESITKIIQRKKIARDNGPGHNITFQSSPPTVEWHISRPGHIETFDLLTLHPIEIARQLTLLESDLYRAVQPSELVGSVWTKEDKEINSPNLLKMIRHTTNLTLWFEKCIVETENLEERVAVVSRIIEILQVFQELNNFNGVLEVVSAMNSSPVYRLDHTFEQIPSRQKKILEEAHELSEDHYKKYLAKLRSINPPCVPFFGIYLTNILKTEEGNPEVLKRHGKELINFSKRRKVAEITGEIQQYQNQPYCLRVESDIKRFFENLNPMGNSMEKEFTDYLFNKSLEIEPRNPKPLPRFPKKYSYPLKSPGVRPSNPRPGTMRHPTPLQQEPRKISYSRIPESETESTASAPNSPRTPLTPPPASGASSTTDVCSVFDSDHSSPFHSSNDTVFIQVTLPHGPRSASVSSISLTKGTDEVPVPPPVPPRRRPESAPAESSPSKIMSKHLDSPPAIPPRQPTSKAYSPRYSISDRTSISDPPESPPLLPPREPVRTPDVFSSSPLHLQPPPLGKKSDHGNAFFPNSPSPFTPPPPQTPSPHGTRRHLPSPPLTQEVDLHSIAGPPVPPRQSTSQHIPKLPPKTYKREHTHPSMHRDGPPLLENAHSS
Assay: SOS1 degradation assay (Western blot), NCI-H358 cells
Type: cell-based
Design: The degradation of SOS1 by the compounds was investigated on KRAS G12C mutant human non-small cell lung cancer cells NCI-H358; host or cells: NCI-H358 (human cancer cell lines)
Settings: SOS1 degradation, NCI-H358 cells, 24 h, Western blot; for DC50: read-out: NCI-H358 (G12C) DC50; for Dmax: read-out: NCI-H358 (G12C) Dmax
Description: The specific procedures were as follows:
0.95 mL of cells were seeded into each well of a 24-well cell culture plate to achieve a cell density of 5×10^5 cells/well; the cell plate was incubated in an incubator at 37° C. with 5% CO2 overnight. Then 50 μL of the compound solution after dilution was added to each of the wells with the corresponding cells, so that the final concentration of the compound was in a range of 0.03-3000 nM. […] After dosing, the cell plate was incubated in an incubator at 37° C. with 5% CO2 for 24 h. […] After the plate was left to stand on ice for 30 min, the protein lysate in each well was transferred to a 1.5 mL centrifuge tube and centrifuged at 15000 g for 20 min at 4° C. The cell lysate supernatant after centrifugation was cryopreserved at −80° C. for testing and was used for determining the degradation level of the SOS1 protein by a WB method. The concentration of total protein in the cell lysate supernatant was determined using the BCA Protein Quantification Kit (Tiangen, PA115-02).
The concentration of total protein in the cell lysate was determined by BCA. The total protein was adjusted to 0.5 μg/μL with PBS and 5× SDS-PAGE protein loading buffer (Beyotime, P0015L), incubated in a water bath at 100° C. for 15 min, incubated in an ice bath on ice for 5 min, centrifuged at 14000 g for 1 min at 4° C., and mixed well as a loading sample for WB. Protein electrophoresis was performed on a precast gel (KeyGEN, KGMGO10W15) with a loading volume of 10 μL (total protein: 5 μg) using a Tris-MOPS-SDS running solution (Adamas, P1598253) at a constant voltage of 120 V for 55 min. After the electrophoresis, the protein on the gel strip was transferred to a PVDF membrane at a constant current of 250 mA for 65 min. After the membrane transfer, the membrane was incubated in 1× QuickBlock blocking buffer (Beyotime, P0235) for 30 min at room temperature. […] The protein map was subjected to gray value analysis by the chemiluminescence imaging system from Clinx. […] Then the degradation rate was calculated by comparing the gray correction value with the gray correction value of the control group. Then nonlinear curve fitting was performed by GraphPad Prism 8 in the logarithmic concentration-inhibition rate to obtain the DC50 and Dmax values of the compounds.

| SMILES | DC50 | Dmax |
| --- | --- | --- |
| COc1cc2nc(C)nc(N[C@H](C)c3cc(N)cc(C(F)(F)F)c3)c2cc1[C@H]1CC[C@H](C(=O)N2CCN(CCCC3CCN(C(=O)c4ccc(Cl)c(N5CCC(=O)NC5=O)c4)CC3)CC2)CC1 [Example 11, 1-(5-(4-(3-(4-((1R,4R)-4-(4-(((R)-1-(3-amino-5-(trifluoromethyl)phenyl)ethyl)amino)-7-methoxy-2-methylquinazolin-6-yl)cyclohexane-1-carbonyl)piperazin-1-yl)propyl)piperidine-1-carbonyl)-2-chlorophenyl)dihydropyrimidine-2,4(1H,3H)-dione] | 1000 to 10000 nM | 30 to 50% |
| COc1cc2nc(C)nc(N[C@H](C)c3cc(N)cc(C(F)(F)F)c3)c2cc1[C@H]1CC[C@H](C(=O)N2CCC(CCCN(C)C3CCN(Cc4ccc(Cl)c(N5CCC(=O)NC5=O)c4)CC3)CC2)CC1 [Example 38, 1-(5-((4-((3-(1-((1R,4R)-4-(4-(((R)-1-(3-amino-5-(trifluoromethyl)phenyl)ethyl)amino)-7-methoxy-2-methylquinazolin-6-yl)cyclohexane-1-carbonyl)piperidin-4-yl)propyl)(methyl)amino)piperidin-1-yl)methyl)-2-chlorophenyl)dihydropyrimidine-2,4(1H,3H)-dione] | 1000 to 10000 nM | < 30% |
| COc1cc2nc(C)nc(N[C@H](C)c3cc(N)cc(C(F)(F)F)c3)c2cc1[C@H]1CC[C@H](C(=O)N2CCC(COCC3CCN(C(=O)c4ccc(Cl)c(N5CCC(=O)NC5=O)c4)CC3)CC2)CC1 [Example 76, 1-(5-(4-(((1-((1R,4R)-4-(4-(((R)-1-(3-amino-5-(trifluoromethyl)phenyl)ethyl)amino)-7-methoxy-2-methylquinazolin-6-yl)cyclohexane-1-carbonyl)piperidin-4-yl)methoxy-d2)methyl)piperidine-1-carbonyl)-2-chlorophenyl)dihydropyrimidine-2,4(1H,3H)-dione] | < 50 nM | – |
| COc1cc2nc(C)nc(N[C@H](C)c3cc(N)cc(C(F)(F)F)c3)c2cc1[C@H]1CC[C@H](C(=O)N2CCC(CCC3CCN(C(=O)c4ccc(Cl)c(N5CCC(=O)NC5=O)c4)CC3)CC2)CC1 [Example 15, 1-(5-(4-(2-(1-((1R,4R)-4-(4-(((R)-1-(3-amino-5-(trifluoromethyl)phenyl)ethyl)amino)-7-methoxy-2-methylquinazolin-6-yl)cyclohexane-1-carbonyl)piperidin-4-yl)ethyl)piperidine-1-carbonyl)-2-chlorophenyl)dihydropyrimidine-2,4(1H,3H)-dione] | 1000 to 10000 nM | < 30% |
| COc1cc2nc(C)nc(N[C@H](C)c3cc(N)cc(C(F)(F)F)c3)c2cc1[C@H]1CC[C@H](C(=O)N2CCN(CC3CCC4(CC3)CCN(C(=O)c3cccc(N5CCC(=O)NC5=O)c3)CC4)CC2)CC1 [Example 21, 1-(3-(9-((4-((1R,4R)-4-(4-(((R)-1-(3-amino-5-(trifluoromethyl)phenyl)ethyl)amino)-7-methoxy-2-methylquinazolin-6-yl)cyclohexane-1-carbonyl)piperazin-1-yl)methyl)-3-azaspiro[5.5]undecane-3-carbonyl)phenyl)dihydropyrimidine-2,4(1H,3H)-dione] | 1000 to 10000 nM | 30 to 50% |

Continued, values first:

| DC50 | Dmax | SMILES |
| --- | --- | --- |
| 50 to 100 nM | 30 to 50% | COc1cc2nc(C)nc(N[C@H](C)c3cc(N)cc(C(F)(F)F)c3)c2cc1C1CCN(C(=O)C2CCN(CC3CCC4(CC3)CCN(C(=O)c3ccc(Cl)c(N5CCC(=O)NC5=O)c3)CC4)CC2)CC1 [Example 4] |
| 1000 to 10000 nM | < 30% | COc1cc2nc(C)nc(N[C@H](C)c3cc(N)cc(C(F)(F)F)c3)c2cc1O[C@H]1CC[C@H](C(=O)N2CCN(CC3CCC4(CC3)CCN(C(=O)c3ccc(Cl)c(N5CCC(=O)NC5=O)c3)CC4)CC2)CC1 [Example 31, 1-(5-(9-((4-((1R,4R)-4-((4-(((R)-1-(3-amino-5-(trifluoromethyl)phenyl)ethyl)amino)-7-methoxy-2-methylquinazolin-6-yl)oxo)cyclohexane-1-carbonyl)piperazin-1-yl)methyl)-3-azaspiro[5.5]undecane-3-carbonyl)-2-chlorophenyl)dihydropyrimidine-2,4(1H,3H)-dione] |
| 50 to 100 nM | 80 to 100% | COc1cc2nc(C)nc(N[C@H](C)c3cc(N)cc(C(F)(F)F)c3)c2cc1[C@H]1CC[C@H](C(=O)N2CCC(CC3CCC4(CC3)CCN(C(=O)c3ccc(Cl)c(N5CCC(=O)NC5=O)c3)CC4)CC2)CC1 [Example 8, 1-(5-(9-((1-((1R,4R)-4-(4-(((R)-1-(3-amino-5-(trifluoromethyl)phenyl)ethyl)amino)-7-methoxy-2-methylquinazolin-6-yl)cyclohexane-1-carbonyl)piperidin-4-yl)methyl)-3-azaspiro[5.5]undecane-3-carbonyl)-2-chlorophenyl)dihydropyrimidine-2,4(1H,3H)-dione] |
| 500 to 1000 nM | 50 to 80% | COc1cc2nc(C)nc(N[C@H](C)c3cccc(C(F)(F)F)c3F)c2cc1[C@H]1CC[C@H](C(=O)N2CCN(CC3CCC4(CC3)CCN(C(=O)c3ccc(Cl)c(N5CCC(=O)NC5=O)c3)CC4)CC2)CC1 [Example 16, 1-(2-chloro-5-(9-((4-((1R,4R)-4-(4-(((R)-1-(2-fluoro-3-(trifluoromethyl)phenyl)ethyl)amino)-7-methoxy-2-methylquinazolin-6-yl)cyclohexane-1-carbonyl)piperazin-1-yl)methyl)-3-azaspiro[5.5]undecane-3-carbonyl)phenyl)dihydropyrimidine-2,4(1H,3H)-dione] |
| < 50 nM | 80 to 100% | COc1cc2nc(C)nc(N[C@H](C)c3cc(N)cc(C(F)(F)F)c3)c2cc1[C@H]1CC[C@H](C(=O)N2CCN(CC3CCC4(CC3)CCN(C(=O)c3ccc(F)c(N5CCC(=O)NC5=O)c3)CC4)CC2)CC1 [Example 24, 1-(5-(9-((4-((1R,4R)-4-(4-(((R)-1-(3-amino-5-(trifluoromethyl)phenyl)ethyl)amino)-7-methoxy-2-methylquinazolin-6-yl)cyclohexane-1-carbonyl)piperazin-1-yl)methyl)-3-azaspiro[5.5]undecane-3-carbonyl)-2-fluorophenyl)dihydropyrimidine-2,4(1H,3H)-dione] |

— patent publication US20240261417A1, “SOS1 DEGRADING AGENT AND PREPARATION METHOD THEREFOR AND APPLICATION THEREOF” (SHANGHAI LEADINGTAC PHARMACEUTICAL CO. LTD., priority 2021, published 2024)
